The record followed here is patent US20230146422A1, “ANIMAL MODEL FOR STUDYING CANCER IMMUNOTHERAPY” (ONCOFACTORY, priority 2020, published 2023).

The subject of assay [1] is CD4 and CD8 T cells of grafted human PBMCs. As to the kind of experiment: Activation and exhaustion markers on T cells of PBMCs grafted or co-grafted with MDAMB436 cells in avian embryo, with or without Keytruda (FIG. 11C). To be noted: FACS 48 hours post-grafting. In kind it is in vivo. As for the experimental part:
(11C) PBMC were co-grafted with tumoral cells: Pmela (a PDL1 negative cell line) or MDAMB436 (a PDL1 weak positive cell line).
Markers of activation (CD69, HLADR on the left) and exhaustion (CTLA4, PD1, on the right) were determined in PBMCs after co-grafting with human tumoral cells (Pmela or MDAM) in an avian embryo. Values are expressed in frequency over CD4+ and CD8+ populations in ratios of total identified lymphocytes (CD3+CD4+ and CD3+CD8+). Standard Deviations show data from a pool of PBMC from different healthy donors. Left Graph: CD4+, right graph: CD8+.
Then, MDAMB436 cells or Pmela cells were co-grafted with human PBMC cells.
At two days (48 hours) post-grafting, PBMCs were isolated from grafted embryos and analyzed by FACS.
Finally, grafted PBMCs were isolated by Percoll density separation and stained cells for markers of activation (CD69/HLADR) and exhaustion (CTLA4/PD1).
Standard Deviations show data from a pool of PBMC from different healthy donors. Values are expressed in ratios of the specific marker over CD3+CD4+ and CD3+CD8+ populations.

Assay [2] has as its system T lymphocytes of PBMCs co-grafted with MDAMD231 tumoral cells. The assay can be described thus: Activation and exhaustion markers on immune cells co-grafted with MDAMD231 cells in avian embryo, Keytruda treatment (FIG. 11D). In kind it is in vivo, human. To be noted: PBMCs co-grafted with MDAMD231, Keytruda 5 mg/ml, 24 hours, vs NaCl. The text has this:
Expression of activation and exhaustion markers on co-grafted immune cells was quantified.

For assay [3], the system named is human melanoma A375 cell line. The assay can be described thus: Tumor volume in avian embryo co-grafted with A375 melanoma cells and human PBMCs (FIG. 12A). To be noted: A375 + human PBMCs co-graft, Keytruda injected 24 hours post-grafting, vs excipient, two to three days post-grafting. The format is in vivo. The protocol: To determine whether tumors composed of mixed human tumoral cells and immune cells are sensitive to anti-PD1 antibody treatment, the human melanoma A375 cell line was selected for the experiments. Indeed, this cell line was recently reported to express significant levels of PDL1 and to respond to anti-PD1 immunotherapy (Kuryk L, Møller A W, Jaderberg M, 2019).
A375 melanoma cells were cultured and co-grafted with human PBMC cells as previously described.
Two to three days post-grafting, embryos were collected and processed for imaging with a confocal light sheet microscope. The volume of the tumors was quantified using IMARIS software.

Assay [4] relates to MDAMB 231 tumoral cells. As to the kind of experiment: Tumor volume in avian embryo co-grafted with MDAMB 231 cells and human PBMCs (FIG. 12B). The format is in vivo. To be noted: MDAMB 231 + human PBMCs co-graft, vs NaCl, raw and BSA-normalized. The protocol: (§1) The same experiment of example 9 was performed with other cancer cells: • MDAMB 231, well-known to be responsive to immunotherapy, and • a tumor sample issued from a patient affected by a metastatic melanoma.

The subject of assay [5] is tumor sample from a patient affected by a metastatic melanoma. The assay can be described thus: Metastasis number and volume in avian embryo co-grafted with human PBMCs and patient metastatic melanoma sample (FIG. 12C). To be noted: patient metastatic melanoma sample + human PBMCs co-graft, vs NaCl. In kind it is in vivo. As for the experimental part:
Metastasis number (on the left) and volume of metastatic tumors (in the middle) have been assessed. On the right, pictures show the extension of the tumor after NaCl treatment (on top) and after Keytruda treatment (on the bottom).
as §1
Also, the number of metastases formed by patient tumoral cells in the avian embryonic tissues has been assessed by the following of fluorescently-labelled tumor cells, and subsequent quantification of the fluorescent signal in the embryo.

For the substance Pemzolibrumab [Keytruda], the “levels of CTLA4 on the CD8 compartment” value in assay [1] (embryo treated 24 hours with Keytruda (PD1 blocking)) is “very high levels”. The “PD1 expression/accessibility on CD8 T cells” value in assay [1] (embryo treated 24 hours with Keytruda) is on record as “minimization”. Further, in assay [2], the “expression of exhaustion marker PD1” value is “decreased” and the “expression of exhaustion marker TIM-3” value is recorded as “decreased”. For the same substance, the “volume of the tumor” value in assay [3] is recorded as “decreases significantly”. Moreover, the tumor volume entry in assay [4] is recorded as “significant reduction”. Moreover, in assay [5], the “metastasis number (ability of tumor cells to metastasis)” value is reported as “significantly decreased” and the metastatic-volume result was “significant reduction”.
